What was measured:
[1] = system: sstr2-negative CHO cell line; conditions: read-out: IC50 on CHO cells; cited from earlier work
sstr2 = conditions: read-out: Kd for sstr2; cited from earlier work
Ar42J cells = experiment: Cell death kinetics; format: cell-based, rat; conditions: MTS, n = 3, 6 at 60 nM, α-amanitin 1 at 10 μM

| Substance | IC50 [1] [nM] | Kd (sstr2) [nM] | cell viability after 24 hours of incubation (in words) (Ar42J cells; 24 h) | cell viability after 48 hours of incubation (in words) (Ar42J cells; 48 h) |
| --- | --- | --- | --- | --- |
| N-propargyl-dideoxy-amanitin [compound 4] | 1000 to 2000 | – | – | – |
| octreotate [compound 2] | – | ~0.4 | – | – |
| α-amanitin [compound 1] | 300 to 700 | – | remained fully viable | loss of cell viability was only observed after 48 hours |

Reference: paper PMC8729174 (RSC Chemical Biology, 2021)
